Experimental data from patent US9145354B2, “Pharmaceutical compounds” (priority 2011, dated 2015).
Where two headings read alike, the source gives them in different places.

Biological target: full length NS3/4a (Hepatitis C virus genotype 1b (isolate BK) (HCV), UniProt P26663)
Assay: NS3 Protease Assay (Example A), FRET-based
Assay type: biochemical
Summary of the method: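 Initial rates were taken from fluorescence progress curves over 30 min at room temperature, and IC50 was fitted across replicates. In-house full-length NS3/4a cleaved a FRET peptide (5-FAMsp/QXL520) from the NS4A/B site. Medium: 50 mM Tris pH8, 20 mM DTT, 1% CHAPS, 10% glycerol, 5% DMSO.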

[1] = stated as IC50 less than 30 μM or at least 40% inhibition at a concentration of 100 μM, read-out: IC50 against the protease activity of the full length NS3/4a
[2] = HCV NS3 protease assay, full length NS3/4a, read-out: Assay A IC50 (μM) average
[3] = read-out: IC50 against the protease activity of the full length NS3/4a

Sequence of full length NS3/4a (P26663 1027-1657): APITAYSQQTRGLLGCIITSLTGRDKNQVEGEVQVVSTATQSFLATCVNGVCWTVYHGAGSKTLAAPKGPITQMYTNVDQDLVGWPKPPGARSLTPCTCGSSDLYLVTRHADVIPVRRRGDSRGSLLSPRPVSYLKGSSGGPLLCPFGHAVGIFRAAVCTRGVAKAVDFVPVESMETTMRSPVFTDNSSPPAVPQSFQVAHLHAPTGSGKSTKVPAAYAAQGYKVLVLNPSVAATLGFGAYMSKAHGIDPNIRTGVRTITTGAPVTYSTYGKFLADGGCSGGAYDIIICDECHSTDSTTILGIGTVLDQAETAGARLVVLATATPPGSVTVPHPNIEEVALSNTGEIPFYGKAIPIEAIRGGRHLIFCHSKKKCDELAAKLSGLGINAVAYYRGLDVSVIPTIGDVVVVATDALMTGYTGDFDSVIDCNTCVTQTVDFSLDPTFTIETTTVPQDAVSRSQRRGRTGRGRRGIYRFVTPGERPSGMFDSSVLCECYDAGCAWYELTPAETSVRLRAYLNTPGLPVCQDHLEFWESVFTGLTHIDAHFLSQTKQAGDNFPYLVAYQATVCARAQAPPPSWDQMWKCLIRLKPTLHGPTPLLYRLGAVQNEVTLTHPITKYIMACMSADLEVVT

Row | SMILES | IC50 [2] [µM] | IC50 [3] [µM] | also measured
1 | CC[C@@H](N[C@H](C)CC(N)=O)c1ccc(Cl)c(C(=O)c2ccc(C#N)c(OC)c2)c1F [Example 236, (3R)-3-{[(1R)-1-{4-chloro-3-[(4-cyano-3-methoxyphenyl)carbonyl]-2-fluorophenyl}propyl]amino}butanamide] | – | – | inhibition at 1 µM (@ 1 uM): 56%; IC50 [1]: < 30 µM
2 | CC[C@@H](N[C@@H](C)CC(=O)NCCN)c1ccc(Cl)c(C(=O)c2ccc(N)nc2)c1F [Example 240, (3S)-N-(2-aminoethyl)-3-{[(1 R)-1-{3-[(6-aminopyridin-3-yl)carbonyl]-4-chloro-2-fluorophenyl}propyl]amino}-butanamide] | – | – | inhibition at 0.03 µM (@ 0.03 uM): 48%; IC50 [1]: < 30 µM
3 | CC[C@@H](N[C@H](C)CC(=O)NCCN)c1ccc(Cl)c(C(=O)c2ccc(N)nc2)c1F [Example 241, (3R)-N-(2-aminoethyl)-3-{[(1R)-1-{3-[(6-aminopyridin-3-yl)carbonyl]-4-chloro-2-fluorophenyl}propyl]amino}-butanamide] | 0.036 | – | –
4 | CC[C@@H](N[C@H](C)CC(=O)NCCO)c1ccc(Cl)c(C(=O)c2ccc(N)nc2)c1F [Example 243, (3R)-3-{[(1R)-1-{3-[(6-aminopyridin-3-yl)carbonyl]-4-chloro-2-fluorophenyl}propyl]amino}-N-(2-hydroxyethyl)butanamide] | 0.43 | – | –
5 | CC[C@@H](N[C@H](C)CC(N)=O)c1ccc(Cl)c(C(=O)c2ccc(N)c(Cl)c2)c1F [Example 244, (3R)-3-{[(1R)-1-{3-[(4-amino-3-chlorophenyl)carbonyl]-4-chloro-2-fluorophenyl}propyl]amino} butanamide] | 0.38 | – | –
6 | C[C@H](CC(N)=O)N[C@@H](c1ccc(Cl)c(C(=O)c2ccc(C#N)cn2)c1F)C1CC1 [Example 245, (3R)-3-{[(R)-{4-chloro-3-[(5-cyanopyridin-2-yl)carbonyl]-2-fluorophenyl}(cyclopropyl)methyl]amino}butanamide] | 3.4 | 1 to 5 | –
7 | CC[C@@H](N[C@H](C)CC(N)=O)c1ccc(Cl)c(C(=O)c2cc(C)c(N)cn2)c1F [Example 246, (3R)-3-{[(1R)-1-{3-[(5-amino-4-methylpyridin-2-yl)carbonyl]-4-chloro-2-fluorophenyl}propyl]amino} butanamide] | 3.9 | 1 to 5 | –
8 | CC[C@@H](N[C@H](C)CC(N)=O)c1ccc(Cl)c(C(=O)c2ccc3c(c2)OCC(=O)N3)c1F [Example 248, (3R)-3-{[(1R)-1-{4-chloro-2-fluoro-3-[(3-oxo-3,4-dihydro-2H-1,4-benzoxazin-7-I)carbonyl]phenyl}propyl]amino}butanamide] | 2 | 1 to 5 | –
9 | CC[C@@H](N[C@H](C)CC(N)=O)c1ccc(OC)c(C(=O)c2ccc(N)nc2)c1F [Example 253, (3R)-3-{[(1R)-1-{3-[(6-aminopyridin-3-yl)carbonyl]-2-fluoro-4-methoxyphenyl}propyl]amino}butanamide] | 1.4 | 1 to 5 | –
10 | C[C@H](CC(N)=O)N[C@@H](c1ccc(Cl)c(C(=O)c2ccc(N)cn2)c1F)C1CC1 [Example 254, (3R)-3-{[(R)-{3-[(5-aminopyridin-2-yl)carbonyl]-4-chloro-2-fluorophenyl}(cyclopropyl)methyl]amino}butanamide] | 1.8 | 1 to 5 | –
11 | C=CC[C@@H](N[C@H](C)CC(N)=O)c1ccc(Cl)c(C(=O)c2ccc(N)nc2)c1F [Example 257, (3R)-3-{[(1R)-1-{3-[(6-aminopyridin-3-yl)carbonyl]-4-chloro-2-fluorophenyl}but-3-en-1-yl]amino}butanamide] | 2 | 1 to 5 | –
12 | CC[C@@H](N[C@H](C)CC(N)=O)c1ccc(Cl)c(C(=O)c2ccc(N)c(C)c2)c1F [Example 260, (3R)-3-{[(1R)-1-{3-[(4-amino-3-methylphenyl)carbonyl]-4-chloro-2-fluorophenyl}propyl]amino}butanamide] | – | – | inhibition at 0.3 µM (@ 0.3 uM): 39%
13 | C[C@H](CC(N)=O)N[C@@H](c1ccc(Cl)c(C(=O)c2ccc(CO)cc2)c1F)C1CC1 [Example 264, (3R)-3-{[(R)-(4-chloro-2-fluoro-3-{[4-(hydroxymethyl)phenyl]carbonyl}phenyl)(cyclopropyl)methyl]amino}butanamide] | 0.61 | – | –
14 | CC[C@@H](N[C@H](C)CC(N)=O)c1ccc(Cl)c(C(=O)c2ccc(N)nc2)c1F [Example 266, (3R)-3-{[(1R)-1-{3-[(6-aminopyridin-3-yl)carbonyl]-4-chloro-2-fluorophenyl}(2,2,3,3,3-deutero)propyl]amino}butanamide] | 1.1 | 1 to 5 | –
15 | C[C@H](CC(N)=O)N[C@@H](c1ccc(Cl)c(C(=O)c2ccc3c(c2)OCC(=O)N3)c1F)C1CC1 [Example 271, (3R)-3-{[(R)-{4-chloro-2-fluoro-3-[(3-oxo-3,4-dihydro-2H-1,4-benzoxazin-7-yl)carbonyl]phenyl}(cyclopropyl)methyl]-amino}butanamide] | 1.1 | 1 to 5 | –
16 | CC(C)C[C@@H](N[C@H](C)CC(N)=O)c1ccc(Cl)c(C(=O)c2ccc(N)nc2)c1F [Example 272, (3R)-3-{[(1R)-1-{3-[(6-aminopyridin-3-yl)carbonyl]-4-chloro-2-fluorophenyl}-3-methylbutyl]amino} butanamide] | – | – | inhibition at 3 µM: 43%; IC50 [1]: < 30 µM

Row | SMILES | IC50 [2] [µM] | IC50 [3] [µM] | also measured
17 | CC[C@@H](N[C@H](C)CC(N)=O)c1ccc(OC)c(C(=O)c2ccc(N)c(C)c2)c1F [Example 274, (3R)-3-{[(1R)-1-{3-[(4-amino-3-methylphenyl)carbonyl]-2-fluoro-4-methoxyphenyl}propyl]amino}butanamide] | 0.56 | – | –
18 | CC[C@@H](N[C@H](C)CC(N)=O)c1ccc(OC)c(C(=O)c2cccc(C#N)c2)c1F [Example 277, (3R)-3-{[(1R)-1-{3-[(3-cyanophenyl)carbonyl]-2-fluoro-4-methoxyphenyl}propyl]amino}butanamide] | 0.73 | – | –
19 | C[C@H](CC(N)=O)N[C@H](CC1CC1)c1ccc(Cl)c(C(=O)c2ccc(N)nc2)c1F [Example 279, (3R)-3-{[(1R)-1-{3-[(6-aminopyridin-3-yl)carbonyl]-4-chloro-2-fluorophenyl}-2-cyclopropylethyl]amino}butanamide] | 0.39 | – | –
20 | C[C@@H](CC(N)=O)NCc1ccc(Cl)c(C(=O)c2ccccc2)c1F [Example 281, (3S)-3-{[(3-benzoyl-4-chloro-2-fluorophenyl)methyl]amino}butanamide] | 0.45 | – | –
21 | CC[C@@H](NC1CCOCC1)c1ccc(Cl)c(C(=O)c2cccnc2)c1F [Example 283, N-[(1R)-1-{4-chloro-2-fluoro-3-[(pyridin-3-yl)carbonyl]phenyl}propyl]oxan-4-amine] | – | – | IC50 [1]: < 30 µM
22 | CC[C@@H](NCC1CC1)c1ccc(Cl)c(C(=O)c2cccnc2)c1F [Example 284] | 2.7 | 1 to 5 | –
23 | CC[C@@H](NC(C)C)c1ccc(Cl)c(C(=O)c2cccnc2)c1F [Example 285, [(1R)-1-{4-chloro-2-fluoro-3-[(pyridin-3-yl)carbonyl]phenyl}propyl] (propan-2-yl)amine] | 2 | 1 to 5 | –
24 | CC[C@H](NC(=O)C1=CCNC1)c1ccc(Cl)c(C(=O)c2cccnc2)c1F [Example 286, N-[(1S)-1-{4-chloro-2-fluoro-3-[(pyridin-3-yl)carbonyl]phenyl}propyl]-2,5-dihydro-1H-pyrrole-3-carboxamide] | 0.13 | < 1 | –
25 | CC[C@H](NC(=O)C1=CCCNC1)c1ccc(Cl)c(C(=O)c2cccnc2)c1F [Example 287, N-[(1S)-1-{4-chloro-2-fluoro-3-[(pyridin-3-yl)carbonyl]phenyl}propyl]-1,2,5,6-tetrahydropyridine-3-carboxamide] | 0.14 | < 1 | –
26 | CC[C@@H](NCc1cnc[nH]1)c1ccc(Cl)c(C(=O)c2cccnc2)c1F [Example 288, [(1R)-1-{4-chloro-2-fluoro-3-[(pyridin-3-yl)carbonyl]phenyl}propyl](1H-imidazol-5-ylmethyl)amine] | 1.4 | 1 to 5 | –
27 | CC[C@@H](NC)c1ccc(Cl)c(C(=O)c2cccnc2)c1F [Example 289, [(1R)-1-{4-chloro-2-fluoro-3-[(pyridin-3-yl)carbonyl]phenyl}propyl](methyl)amine] | 2.4 | 1 to 5 | –
28 | CC[C@@H](NCCF)c1ccc(Cl)c(C(=O)c2cccnc2)c1F [Example 290, [(1R)-1-{4-chloro-2-fluoro-3-[(pyridin-3-yl)carbonyl]phenyl}propyl] (2-fluoroethyl)amine] | 14 | – | IC50 [1]: < 30 µM
29 | CC[C@@H](NC(=O)C1=CCNC1)c1ccc(Cl)c(C(=O)c2cccnc2)c1F [Example 291, N-[(1R)-1-{4-chloro-2-fluoro-3-[(pyridin-3-yl)carbonyl]phenyl}propyl]-2,5-dihydro-1H-pyrrole-3-carboxamide] | – | 1 to 5 | inhibition at 3 µM: 51%
30 | CC[C@@H](N[C@@H]1CCOC1)c1ccc(Cl)c(C(=O)c2cccnc2)c1F [Example 292, (3R)-N-[(1R)-1-{4-chloro-2-fluoro-3-[(pyridin-3-yl)carbonyl]phenyl}propyl] oxolan-3-amine] | – | – | inhibition at 10 µM: 4%
31 | CC[C@@H](N[C@H]1CCOC1)c1ccc(Cl)c(C(=O)c2cccnc2)c1F [Example 293, (3S)-N-[(1R)-1-{4-chloro-2-fluoro-3-[(pyridin-3-yl)carbonyl]phenyl}propyl] oxolan-3-amine] | – | – | inhibition at 10 µM: 11%
32 | CC[C@H](NC(=O)C1CCCNC1)c1ccc(Cl)c(C(=O)c2cccnc2)c1F (stereo partly drawn) [Example 294, N-[(1S)-1-{4-chloro-2-fluoro-3-[(pyridin-3-yl)carbonyl]phenyl}propyl]piperidine-3-carboxamide] | 0.41 | < 1 | –
